According to patent US9546141B2, “Salts” (Sprout Pharmaceuticals, Inc., priority 2008, dated 2017):
Values belong to the compound of their own block, whether it stands above or below them.

Legend:
[1] = Solubility of the crystalline salt forms in water; assay type: physicochemical; settings: shaken 2 hours, filtered, UV-spectroscopy
Experimental: Solubility of the different crystalline salt forms in water was determined by adding […] of compound into 5 ml of water at room temperature. The mixture was vigorously shaken for 2 hours at room temperature. Afterwards the undissolved solid was removed by filtering through a 0.45 μm PTFE filter, in the filtrate the dissolved amount of compound was determined by UV-spectroscopy.

[2] = Hygroscopicity (IGAsorp water sorption monitor); assay type: physicochemical; settings: room temperature
Experimental: IGAsorp water sorption monitor from Hiden Isochema was used for the analysis of the hygroscopical behaviour at room temperature. • humidity profile: from 10-90% r.h. in steps of 10%, sorption as well as desorption profiles were registered • weight-in quantity: 10-20 mg

solubility in water at room temperature [1]: 1.7 mg/mL | hygroscopicity expressed in the uptake of water in the range of 10-90% relative humidity [2]: 0.7%
SMILES: O=C(O)C(=O)O.O=c1[nH]c2ccccc2n1CCN1CCN(c2cccc(C(F)(F)F)c2)CC1 [IX, 1-[2-(4-(3-trifluoro-methyl-phenyl)piperazin-1-yl)ethyl]-2,3-dihydro-1H-benzimidazol-2-one oxalate]

solubility in water at room temperature [1]: 1.3 mg/mL | hygroscopicity expressed in the uptake of water in the range of 10-90% relative humidity [2]: 0.32%
SMILES: CCS(=O)(=O)O.O=c1[nH]c2ccccc2n1CCN1CCN(c2cccc(C(F)(F)F)c2)CC1 [XV, 1-[2-(4-(3-trifluoro-methyl-phenyl)piperazin-1-yl)ethyl]-2,3-dihydro-1H-benzimidazol-2-one ethansulfonate]

solubility in water at room temperature [1]: 0.5 mg/mL | hygroscopicity expressed in the uptake of water in the range of 10-90% relative humidity [2]: 0.28%
SMILES: O=C(O)/C=C/C(=O)O.O=c1[nH]c2ccccc2n1CCN1CCN(c2cccc(C(F)(F)F)c2)CC1 [XXXI, 1-[2-(4-(3-trifluoro-methyl-phenyl)piperazin-1-yl)ethyl]-2,3-dihydro-1H-benzimidazol-2-one fumarate]

solubility in water at room temperature [1]: 0.5 mg/mL | hygroscopicity expressed in the uptake of water in the range of 10-90% relative humidity [2]: 0.20%
SMILES: O=C(O)CO.O=c1[nH]c2ccccc2n1CCN1CCN(c2cccc(C(F)(F)F)c2)CC1 [XXXIII, 1-[2-(4-(3-trifluoro-methyl-phenyl)piperazin-1-yl)ethyl]-2,3-dihydro-1H-benzimidazol-2-one glycolate]

solubility in water at room temperature [1]: 1.1 mg/mL | hygroscopicity expressed in the uptake of water in the range of 10-90% relative humidity [2]: 3.4%
SMILES: CS(=O)(=O)O.O=c1[nH]c2ccccc2n1CCN1CCN(c2cccc(C(F)(F)F)c2)CC1 [VII, 1-[2-(4-(3-trifluoro-methyl-phenyl)piperazin-1-yl)ethyl]-2,3-dihydro-1H-benzimidazol-2-one mesylate]

The next lines start with the compound.

SMILES: O=C1NS(=O)(=O)c2ccccc21.O=c1[nH]c2ccccc2n1CCN1CCN(c2cccc(C(F)(F)F)c2)CC1 [XI, 1-[2-(4-(3-trifluoro-methyl-phenyl)piperazin-1-yl)ethyl]-2,3-dihydro-1H-benzimidazol-2-one sacharinate]
solubility in water at room temperature [1]: 0.3 mg/mL | hygroscopicity expressed in the uptake of water in the range of 10-90% relative humidity [2]: 0.24%

SMILES: CC1(C)C2CCC1(CS(=O)(=O)O)C(=O)C2.O=c1[nH]c2ccccc2n1CCN1CCN(c2cccc(C(F)(F)F)c2)CC1 [XXXII, 1-[2-(4-(3-trifluoro-methyl-phenyl)piperazin-1-yl)ethyl]-2,3-dihydro-1H-benzimidazol-2-one camphorsulfonate]
solubility in water at room temperature [1]: 0.7 mg/mL | hygroscopicity expressed in the uptake of water in the range of 10-90% relative humidity [2]: 0.13%

SMILES: Cc1ccc(S(=O)(=O)O)cc1.O=c1[nH]c2ccccc2n1CCN1CCN(c2cccc(C(F)(F)F)c2)CC1 [XXX, 1-[2-(4-(3-trifluoro-methyl-phenyl)piperazin-1-yl)ethyl]-2,3-dihydro-1H-benzimidazol-2-one tosylate]
solubility in water at room temperature [1]: 0.09 mg/mL | hygroscopicity expressed in the uptake of water in the range of 10-90% relative humidity [2]: 0.25%

SMILES: O=S(=O)(O)c1ccccc1.O=c1[nH]c2ccccc2n1CCN1CCN(c2cccc(C(F)(F)F)c2)CC1 [VIII, 1-[2-(4-(3-trifluoro-methyl-phenyl)piperazin-1-yl)ethyl]-2,3-dihydro-1H-benzimidazol-2-one besylate]
solubility in water at room temperature [1]: 0.1 mg/mL | hygroscopicity expressed in the uptake of water in the range of 10-90% relative humidity [2]: 0.15%
